Reference: PubChem BioAssay AID1963854 (Molecular Pharmacology Branch, DTP, NCI, 2024)

Tested on: 186277-243-T-J2-PDC complex spheroid viability
Experiment: Anticancer human tumor 186277-243-T-J2-PDC patient-derived colon adenocarcinoma cell line growth inhibition [POLQ]
Settings: for IC50: curve of first compound; for viability, T/C: stronger effect = lower value
How it was run: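 Patient-derived tumour cells were co-cultured with HUVEC and mesenchymal stem cells as multicellular spheroids at 37 °C. They were treated with POLQ inhibitors (novobiocin, ART-558, RP6685) alone or combined with other agents. Top concentrations were at or near clinical Cmax (otherwise 10 microM; SN-38 at 1 microM), decreasing in half-log steps.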

[1] = second compound 0.0316 µM, first compound 0.0316 µM
[2] = second compound 0.0316 µM, first compound 0.1 µM
[3] = second compound 0.0316 µM, first compound 0.316 µM
[4] = second compound 0.0316 µM, first compound 1 µM
[5] = second compound 0.0316 µM, first compound 3.16 µM
[6] = second compound 0.0316 µM, first compound 10 µM
[7] = second compound 0.1 µM, first compound 0.0316 µM
[8] = second compound 0.1 µM, first compound 0.1 µM
[9] = second compound 0.1 µM, first compound 0.316 µM
[10] = second compound 0.1 µM, first compound 1 µM
[11] = second compound 0.1 µM, first compound 3.16 µM
[12] = second compound 0.1 µM, first compound 10 µM
[13] = second compound 0.316 µM, first compound 0.0316 µM
[14] = second compound 0.316 µM, first compound 0.1 µM
[15] = second compound 0.316 µM, first compound 0.316 µM
[16] = second compound 0.316 µM, first compound 1 µM
[17] = second compound 0.316 µM, first compound 3.16 µM
[18] = second compound 0.316 µM, first compound 10 µM
[19] = second compound 1 µM, first compound 0.0316 µM
[20] = second compound 1 µM, first compound 0.1 µM
[21] = second compound 1 µM, first compound 0.316 µM
[22] = second compound 1 µM, first compound 1 µM
[23] = second compound 1 µM, first compound 3.16 µM
[24] = second compound 1 µM, first compound 10 µM
[25] = second compound 3.16 µM, first compound 0.0316 µM
[26] = second compound 3.16 µM, first compound 0.1 µM
[27] = second compound 3.16 µM, first compound 0.316 µM
[28] = second compound 3.16 µM, first compound 1 µM
[29] = second compound 3.16 µM, first compound 3.16 µM
[30] = second compound 3.16 µM, first compound 10 µM
[31] = second compound 10 µM, first compound 0.0316 µM
[32] = second compound 10 µM, first compound 0.1 µM
[33] = second compound 10 µM, first compound 0.316 µM
[34] = second compound 10 µM, first compound 1 µM
[35] = second compound 10 µM, first compound 3.16 µM
[36] = second compound 10 µM, first compound 10 µM
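Also: spheroids exposed to compounds for seven days.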
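For viability, T/C in this document: 100% = DMSO vehicle control viability.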

## COc1cccc2c1C(=O)c1c(O)c3c(c(O)c1C2=O)CC(O)(C(=O)CO)CC3OC1CC(N)C(O)C(C)O1 (centres undefined) + Cc1cccc(N(C)C(=O)C2C(O)CCN2c2nc(C)cc(C(F)(F)F)c2C#N)c1
Second compound 0.0316 µM
  IC50: 106 nM
Second compound 0.1 µM
  IC50: 116 nM
Second compound 0.316 µM
  IC50: 114 nM
Second compound 1 µM
  IC50: 120 nM
Second compound 3.16 µM
  IC50: 119 nM
Second compound 10 µM
  IC50: 76.6 nM
[1]
  viability, T/C: 104%
[2]
  viability, T/C: 52.1%
[3]
  viability, T/C: 10.2%
[4]
  viability, T/C: 0.23%
[5]
  viability, T/C: 0.15%
[6]
  viability, T/C: 0.39%
[7]
  viability, T/C: 107%
[8]
  viability, T/C: 55.6%
[9]
  viability, T/C: 11.1%
[10]
  viability, T/C: 0.24%
[11]
  viability, T/C: 0.11%
[12]
  viability, T/C: 0.45%
[13]
  viability, T/C: 96.9%
[14]
  viability, T/C: 55.2%
[15]
  viability, T/C: 10.3%
[16]
  viability, T/C: 0.56%
[17]
  viability, T/C: 0.14%
[18]
  viability, T/C: 0.43%
[19]
  viability, T/C: 95.7%
[20]
  viability, T/C: 57%
[21]
  viability, T/C: 12%
[22]
  viability, T/C: 0.45%
[23]
  viability, T/C: 0.16%
[24]
  viability, T/C: 0.7%
[25]
  viability, T/C: 89.3%
[26]
  viability, T/C: 57.4%
[27]
  viability, T/C: 9.06%
[28]
  viability, T/C: 0.16%
[29]
  viability, T/C: 1.06%
[30]
  viability, T/C: 0.34%
[31]
  viability, T/C: 76.3%
[32]
  viability, T/C: 42.1%
[33]
  viability, T/C: 3.48%
[34]
  viability, T/C: 0.3%
[35]
  viability, T/C: 0.5%
[36]
  viability, T/C: 0.36%

## O=c1[nH]cc(F)c(=O)[nH]1 + Cc1cccc(N(C)C(=O)C2C(O)CCN2c2nc(C)cc(C(F)(F)F)c2C#N)c1
Second compound 0.0316 µM
  IC50: 9400 nM
Second compound 0.1 µM
  IC50: > 10000 nM
Second compound 0.316 µM
  IC50: 9140 nM
Second compound 1 µM
  IC50: 9770 nM
Second compound 3.16 µM
  IC50: > 10000 nM
Second compound 10 µM
  IC50: 8830 nM
[1]
  viability, T/C: 103%
[2]
  viability, T/C: 99.5%
[3]
  viability, T/C: 95.4%
[4]
  viability, T/C: 112%
[5]
  viability, T/C: 75.5%
[6]
  viability, T/C: 48.5%
[7]
  viability, T/C: 105%
[8]
  viability, T/C: 99.9%
[9]
  viability, T/C: 98.9%
[10]
  viability, T/C: 98.3%
[11]
  viability, T/C: 73.5%
[12]
  viability, T/C: 52.2%
[13]
  viability, T/C: 87.2%
[14]
  viability, T/C: 91.6%
[15]
  viability, T/C: 94.4%
[16]
  viability, T/C: 116%
[17]
  viability, T/C: 76.5%
[18]
  viability, T/C: 47.8%
[19]
  viability, T/C: 102%
[20]
  viability, T/C: 102%
[21]
  viability, T/C: 104%
[22]
  viability, T/C: 103%
[23]
  viability, T/C: 79.9%
[24]
  viability, T/C: 49.4%
[25]
  viability, T/C: 112%
[26]
  viability, T/C: 108%
[27]
  viability, T/C: 88.5%
[28]
  viability, T/C: 99.7%
[29]
  viability, T/C: 81.8%
[30]
  viability, T/C: 52.1%
[31]
  viability, T/C: 105%
[32]
  viability, T/C: 110%
[33]
  viability, T/C: 100%
[34]
  viability, T/C: 111%
[35]
  viability, T/C: 77.6%
[36]
  viability, T/C: 46.7%
